Data from patent US20250381276A1, “SMALL MOLECULE CONJUGATED CHARGE-ALTERING RELEASABLE TRANSPORTERS FOR NUCLEIC ACID DELIVERY” (The Board of Trustees of the Leland Stanford Junior …, priority 2022, published 2025).

Test system: peripheral blood lymphocytes
Experiment: Lymphocyte depletion assay (peripheral blood T and B cells)
Format: in vivo, BALB/c mice
Conditions: single i.v. dose, 24 hours vs baseline; FTY720 12.9 μg, mRNA 7.5 μg/mouse
Protocol: For in vivo administration, CART formulations were prepared adding 18.75 μg of mRNA (18.75 uL of a 1 mg/mL stock) to 205 uL of PBS (pH 5.5) and to this 26.22 uL of CART (from a 2 mmol/L stock in DMSO) were added and mixed for 20 seconds. A total of 100 uL of this formulation was administered i.v. into the tail vein of each mouse, injecting two mice at a time per each treatment group and resulting in a final mRNA dose of 7.5 ug/mouse. CART formulations were injected immediately after mixing (within 20 s).
Blood was drawn from the submandibular vein of the mice immediately before and 24 hours after treatment with Fluc mRNA-CART complexes prepared and administered as above. In both cases approximately 1 mL of venous blood was collected per mouse into FACS tubes pre-filled with 500 μL of Ca^2+-EDTA. […]
One of the potential benefits of functionalizing an mRNA delivery vehicle with a small molecule is to exploit the biological properties of the small molecule for therapeutic purposes. […] Before treatment, mice were bled to measure the baseline levels of circulating T cells (CD3+) and B cells (B220+) calculated through flow cytometry as a percentage of the total peripheral blood lymphocytes. The mice were then bled 24 hours after treatment and the levels of peripheral T and B lymphocytes were measured again (FIG. 5). […]

With `CCCCCCCCc1ccc(CCC(N)(CO)CO)cc1` [FTY720, fingolimod] the “Reduction in the percentage of circulating T cells (CD3+)” value was 84%.
